# Results: patent US8466311B2, “Neuroprotective compositions and methods” (Sanford-Burnham Medical Research Institute, priority 2006, dated 2013)
# How the values were obtained:
# [1] = system: GSH; assay: Total GSH levels in cortical cultures; type: cell-based; conditions: NEM
# Experimental: Cell cultures, transfection, and glutathione (GSH) measurement. […] Transfection was performed with Lipofectamine 2000 (Invitrogen). In the reporter gene assays, firefly luciferase activity in cell lysates was measured with a luminometer (Promega). Total GSH (reduced and oxidized) was determined as described (Lee et al., Biochem. Biophys. Res. Commun. 280:286-292, 2001).
# One caveat to the mechanism of NEPP and other electrophilic compounds acting at the level of Keap1 to induce HO-1 transcription is that NEPP could potentially react indiscriminately with other thiol-containing compounds in cells. To approach this question, we assessed cellular glutathione (GSH) levels to determine whether NEPP11 would affect this abundant antioxidant thiol. Nepp11 or N-ethylmaleimide (NEM) was added at t=0 and levels of total GSH were measured at the indicated times. GSH content of control cortical cultures (set arbitrarily at 100%) was 46.8±4.5 nmol/mg protein. […] In fact, this scenario seems likely, because the Keap1/Nrf2 pathway regulates the expression of γ-GCL in addition to HO-1 (Itoh et al., Mol. Cell. Biol. 24:36-45, 2004). […]
# Transfections were performed with Lipofectamine 2000 (Invitrogen), and firefly luciferase activity in cell lysates was measured with a luminometer in the reporter gene assays (Promega).
# [2] = system: cerebrocortical neurons; assay: NMDA-induced neuronal cell death (excitotoxicity) in cerebrocortical cultures; conditions: ZnPP 10 μM added simultaneously with NEPP11
# Experimental: We stained the cultures with both anti-MAP-2 and anti-NeuN monoclonal antibodies to label neuronal dendrites and nuclei, respectively. Vehicle or NEPP11 (0.7 μM) was added to cerebrocortical cultures (E17 and DIV14-21) 60 min before treatment with NMDA (50 μM) for 15 min. The cultures were then incubated for 20 h and subsequently stained with anti-MAP-2 and anti-NeuN and with Hoechst dye. Apoptotic nuclei were identified by morphological changes seen with Hoechst staining. […] We also added zinc protoporphyrin (ZnPP, 10 μM), a relatively specific HO-1 antagonist, simultaneously with NEPP11. The number of apoptotic neurons was assessed by determining the apoptotic index [(number of condensed nuclei in MAP-2 or NeuN-positive cells)/(number of total MAP-2 or NeuN-positive cells)×100%], as reported by Bonfoco et al. (Proc. Natl. Acad. Sci. USA 92:7162-7166, 1995).
# Cerebrocortical cultures were prepared from embryonic day-17 Sprague-Dawley rats and used at day 14-21 in vitro (DIV14-21), as described (Bonfoco et al., Proc. Natl. Acad. Sci. USA 92:7162-7166, 1995). To induce predominantly neuronal apoptosis (rather than necrosis), we exposed cortical cultures to 50 mM NMDA plus 5 mM glycine/1.8 mM CaCl2 in nominally Mg^2+-free Earle's balanced salt solution for 15 min (Bonfoco et al., Proc. Natl. Acad. Sci. USA 92:7162-7166, 1995). After exposure to NMDA, the cultures were returned to normal medium containing vehicle or NEPP11 and incubated for 20 hr before analyzing cell survival. To assess the ability of NEPP compounds to block NMDA-induced neuronal apoptosis, we identified apoptotic neurons by double immunofluorescence with anti-NeuN and anti-MAP-2 to specifically label neurons and with Hoechst staining for nuclear morphology to detect apoptosis. The percentage of neurons and non-neuronal cells in our cultures was 33.6±4.9% and 66.4±4.4% (n=4), respectively.
# In addition, we used mature cortical cultures (E17, DIV21) to assess excitotoxicity because functional NMDA receptors are expressed on these neurons.
# [3] = system: mixed neuronal/glial cortical cultures; assay: Site of accumulation of biotin-labeled compound in mixed neuronal/glial cortical cultures; type: cell-based, rat; conditions: E17 DIV21
# Experimental: Activation of the Keap1/Nrf2 pathway in Primary Cortical Cultures. To begin to test the effects of NEPP compounds on primary cerebrocortical neurons, we treated mixed neuronal/glial cortical cultures with NEPP6-biotin and then fixed and stained with rhodamine conjugated to streptavidin to determine the site of NEPP accumulation. Cortical cultures treated with NEPP6-biotin (10 μM) were stained with anti-MAP-2 monoclonal and rhodamine-conjugated streptavidin antibodies and with Hoechst 33,258 dye.
# Immunocytochemistry. Cultures were fixed with 3% paraformaldehyde at room temperature for 20 min. After three washes in PBS, the cells were permeabilized with 0.3% Triton X-100 for 5 min. After three additional washes in PBS, the cells were incubated at 4° C. overnight with primary antibodies. They were then washed three times in PBS containing 0.2% Tween 20 (PBS-T), and next incubated with secondary antibodies for 1 h at room temperature. Thereafter, the cells were again washed, and their nuclei stained with Hoechst 33,258 (5 μg/ml) or with DAPI (1 μg/ml) for 5 min. Stained preparations were mounted and examined by epifluorescence microscopy. The following primary antibodies were used: anti-Nrf2 antibody, anti-MAP2 and anti-NeuN antibodies to identify neurons (dendrites and nuclei, respectively), and anti-S100β antibody to identify astrocytes. […]
# [4] = system: PC12h cells; assay: Oxidative glutamate toxicity in PC12h cells (MTT assay); type: cell-based
# Experimental: PC12h cells, PC12hW1B cells, and PC12hD5D cells (expressing Nrf2DN) were incubated with various concentrations of glutamate for 20 h. […] Various concentrations of CA were added to PC12, PC or PC12hD5D cells 1 h prior to exposure to 5 mM glutamate for 20 h.
# PC12h and COST cell cultures.
# Thus, we examined whether CA could protect PC12h cells from such insults. We prepared naïve PC12h cells, Nrf2WT-expressing PC12h cells (PC12hW1B), and Nrf2DN-expressing PC12h cells (PC12hD5D). In order to examine the effects of the Keap1/Nrf2 pathway on cell survival in the face of oxidative stress, we exposed the cells to a high concentration of glutamate. […] To visualize surviving and dead cells, we stained cultures with fluorescein diacetate (FDA) and propidium iodide (PI), respectively. Additionally, cell survival was quantified by the 3-(4,5-dimethylthiazol-2-yl)-2,5-diphenyl tetrazolium bromide (MTT) assay (FIG. 4A).
# We next tested the hypothesis that CA-induced neuroprotection is mediated by the Keap1/NRf2 pathway.
# [5] = system: ARE; assay: ARE(GSTYa)-luciferase reporter in PC12h cells; type: cell-based
# Experimental: (1) pGL3-GSTYa ARE core-luciferase vector. […] The dsDNA thus obtained was inserted into the Mlu l and Bglll sites of the pGL3-promoter vector (Promega Co., Madison, Wis.).
# Transient transfection and measurement of luciferase activity. PC12h cells or cerebrocortical cultures (E17, DIV21) were incubated for 5 h in EBSS containing 1 μg of a plasmid DNA plus Lipofectamine 2000 (Invitrogen, Carlsbad, Calif.). Transfection efficiency was normalized to β-galactosidase activity expressed by co-transfection with pSV-β-gal (Promega). For reporter gene assays, cells were transfected with 1 μg of the reporter construct [ARE(GSTYa)-luciferase] and 0.2 μg pSV-β-gal for 1 hour. […] Firefly luciferase activity and β-galactosidase activity in cell lysates were measured using a Luciferase System and β-Galactosidase Enzyme Assay System, respectively (Promega, Madison, Wis.).
# Next, we examined the involvement of the Keap1/Nrf2 pathway more precisely by studying activation of the ARE. This transcription element responds to the Keap1/Nrf2 pathway; we monitored activation of the ARE by performing luciferase reporter gene assays using PC12h cells transfected with ARE(GSTYa)-luciferase (Alam et al., J. Biol. Chem. 274:26071-26077, 1999) in the presence or absence of an Nrf2 dominant-negative (DN) or Keap1 expression vector.
# [6] = system: Keap1; assay: Binding of CAB/CA to Keap1 and Keap1 deletion mutants (streptavidin precipitation); conditions: COS7 cells, 10 μM CAB
# Experimental: (§1) (3) Expression vectors for HA-tagged Keap1 and Keap1 deletion mutants. These constructs were obtained from Dr. Akira Kobayashi of Tohoku University (Hosoya et al., J. Biol. Chem. 29:27244-27250, 2006; Kobayashi et al., Mol. Cell. Biol. 26:221-229, 2006).
# (§2) Immunoprecipitation with agarose-immobilized streptavidin or antibody. PC12h cells (CAB- or vehicle-treated) were lysed in RIPA buffer supplemented with protease inhibitor cocktail. The lysates were centrifuged at 15,000 rpm for 10 min at 4° C., after which the supernatants were incubated with agarose-immobilized streptavidin at 4° C. for 1 h. Alternatively, for immunoprecipitation with anti-Keap1, the cell lysates were incubated with the antibody at 4° C. overnight, after which protein A immobilized on Sepharose CL-4B was added and incubation continued at 4° C. for 1 h. Then, the complexes were washed three times with rinse buffer (150 mM NaCl, 50 mM Tris-HCl [pH 7.5], 0.1% NP-40, 1 mM EDTA, and 0.02% NaN3). SDS sample buffer was added, the mixture was boiled for 5 min, and the supernatants were subjected to SDS-PAGE. Immunoblotting was then performed as described above.
# (§3) CA activates the Keap1/Nrf2/ARE pathway. […] The initial reaction in this activation cascade is the binding of an electrophilic compound to specific cysteines on Keap1 protein (Hong et al., Chem. Res. Toxicol. 18: 1917-1926, 2005; Eggler et al., Proc. Nat. Acad. Sci. USA 102:10070-10075, 2005; Zhang et al., Mol. Cell. Biol. 10941-10953, 2004). Such binding initiates a cellular transcription pathway leading to induction of phase 2 enzymes (Talalay, Biofactors 12:5-11, 2000; Padmanabham et al., Mol. Cell 21:689-700, 2006; Itoh et al., Free Radic. Biol. Med. 36:1208-1213, 2004). Therefore, we examined the domains of Keap1 (designated BTB, IVR, and DGR) to determine those essential for binding to CA. Accordingly, for co-immunoprecipitation experiments, we transfected COS7 cells with DNA expressing either HA-tagged wild type Keap1 protein (HA-WT Keap1) or various deletion mutants of tagged Keap1 protein (HA-ΔBTB Keap1, HA-ΔIVR Keap1, and HA-ΔDGR Keap1). The transfected COS7 cells were then treated with vehicle or 10 μM CAB and lysed. We quantified the expression level of Keap1 protein in total cell lysates with anti-HA antibody. Each Keap1 mutant protein was expressed at a similar level of the predicted molecular weight (57 kDa for HA-ΔBTB Keap1, 53 kDa for HA-ΔIVR Keap1, and 37 kDa for HA-ΔDGR Keap1). Next, in order to detect Keap1/CAB complexes, we immunoprecipitated cell lysates with streptavidin and probed with anti-HA antibody. […] The requirement of the BTB domain for CA binding is in accord with prior results (Hong et al., Chem. Res. Toxicol. 18:1917-1926, 2005; Eggler et al., Proc. Nat. Acad. Sci. USA 102:10070-10075, 2005; Zhang et al., Mol. Cell. Biol. 24:10941-10953, 2004).
# (§4) After binding of the electrophilic quinone-form of CA to Keap1 protein, activation of the Keap1/Nrf2 pathway requires nuclear translocation of Nrf2 (Talalay, Biofactors 12:5-11, 2000; Padmanabham et al., Mol. Cell 21:689-700, 2006; Itoh et al., Free Radic. Biol. Med. 36:1208-1213, 2004). Thus, we next examined the intracellular distribution of Nrf2 protein in COS7 cells by immunofluorescence.
# [7] = molecular target: T1, Keap1 (Mus musculus, UniProt Q9Z2X8); assay: as above; conditions: COS7 cells, HA-WT Keap1, 10 μM CAB
# T1 construct: expressed in transfected cells; host or cells: COS7 cells
# T1 sequence (Q9Z2X8 whole entry): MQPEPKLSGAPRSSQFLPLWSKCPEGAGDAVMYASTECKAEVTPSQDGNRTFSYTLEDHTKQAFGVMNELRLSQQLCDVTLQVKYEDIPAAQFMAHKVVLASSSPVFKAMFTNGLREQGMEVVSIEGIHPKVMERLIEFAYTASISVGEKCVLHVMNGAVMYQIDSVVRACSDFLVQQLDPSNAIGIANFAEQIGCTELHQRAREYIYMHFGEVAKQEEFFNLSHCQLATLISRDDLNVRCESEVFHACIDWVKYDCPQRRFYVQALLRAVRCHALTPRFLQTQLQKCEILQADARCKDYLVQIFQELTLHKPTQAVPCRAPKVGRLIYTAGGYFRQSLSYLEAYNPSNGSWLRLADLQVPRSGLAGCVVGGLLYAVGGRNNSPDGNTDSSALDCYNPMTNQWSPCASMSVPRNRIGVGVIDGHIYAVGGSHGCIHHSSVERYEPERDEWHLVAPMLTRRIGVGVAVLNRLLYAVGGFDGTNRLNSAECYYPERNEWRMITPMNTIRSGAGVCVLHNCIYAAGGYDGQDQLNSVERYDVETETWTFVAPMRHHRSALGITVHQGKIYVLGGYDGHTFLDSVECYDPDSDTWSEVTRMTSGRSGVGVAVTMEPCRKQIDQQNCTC
# Experimental: as §1, §2, §3, §4
# [8] = molecular target: T2, bovine serum albumin (BSA) (Bos taurus, UniProt P02769); assay: Adduct formation with free cysteine of BSA (streptavidin blot); type: binding; conditions: PBS, room temperature, 5 h, streptavidin probe
# T2 construct: purchased WAKO Chemicals Inc. (Tokyo, Japan) or Sigma (St. Louis, Mo.)
# T2 sequence (P02769 25-607): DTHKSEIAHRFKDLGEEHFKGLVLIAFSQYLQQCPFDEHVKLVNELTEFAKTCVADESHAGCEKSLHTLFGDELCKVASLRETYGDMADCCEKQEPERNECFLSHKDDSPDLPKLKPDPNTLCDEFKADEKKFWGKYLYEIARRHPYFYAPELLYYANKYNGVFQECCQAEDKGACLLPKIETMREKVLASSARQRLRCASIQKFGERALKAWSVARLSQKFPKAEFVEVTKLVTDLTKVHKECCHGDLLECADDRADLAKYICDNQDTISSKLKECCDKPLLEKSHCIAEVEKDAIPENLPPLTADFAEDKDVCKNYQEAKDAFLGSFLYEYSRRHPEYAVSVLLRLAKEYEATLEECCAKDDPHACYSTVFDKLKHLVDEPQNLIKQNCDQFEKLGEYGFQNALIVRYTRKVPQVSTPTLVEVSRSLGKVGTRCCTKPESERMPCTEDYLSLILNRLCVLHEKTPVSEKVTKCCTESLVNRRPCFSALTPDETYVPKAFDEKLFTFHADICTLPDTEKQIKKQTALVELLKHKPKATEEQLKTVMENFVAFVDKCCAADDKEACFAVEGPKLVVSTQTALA
# Experimental: We tested whether the free cysteine of bovine serum albumin (BSA) could form an adduct with NEPP compounds. If carbon #11 on the NEPP compounds binds to this free cysteine of BSA, then pretreatment with N-ethylmaleimide (NEM), in irreversible thiol alkylating agent, would abolish this binding. […] With streptavidin as a probe, we could then detect proteins bound to NEPP6-biotin. In order to study thiols as targets of NEPP binding, BSA (1 μg per lane) was incubated with various concentrations (0-1000 μM) of N-ethylmaleimide (NEM) for 30 minutes at room temperature. Vehicle or NEPP6-biotin (10 μM) in phosphate-buffered saline (PBS) was added and the mixture was incubated at room temperature for 5 h, subjected to sodium dodecyl sulfate polyacrylamide gel electrophoresis (SDS-PAGE), and probed with peroxidase-conjugated streptavidin. The gel was also stained with Coomassie brilliant blue.
smiles,measurement,setting,value
"CCN1C(=O)C=CC1=O [NEM, N-ethylmaleimide, reference compound]",outcome for neurons in cortical cultures,[1],neuronal death after 24 h
"C=CC1=C(C)c2cc3[n-]c(cc4nc(cc5[n-]c(cc1n2)c(C)c5C=C)C(C)=C4CCC(=O)O)c(CCC(=O)O)c3C.[Zn+2] [ZnPP, zinc protoporphyrin, reference compound]",effect of HO-1 antagonist on neuroprotection by NEPP11,[2],abrogated the neuroprotective effect of NEPP11
CC(C)c1cc2c(c(O)c1O)C1(C(=O)NCCCCCNC(=O)CCCCC3SCC4NC(=O)NC43)CCCC(C)(C)C1CC2 (stereo not shown) [CAB],site of accumulation at low concentration,[3]; CAB 3 μM,non-neuronal cells were strongly positive
same,site of accumulation at higher concentration,[3]; CAB 10 μM,neurons were also labeled
same,"level required to protect PC12h cells, relative to CA",[4],a greater level of CAB than CA was required
same,ARE activation relative to CA,[5]; 20 μM CAB versus 10 μM CA,to a much lesser extent
same,activation of the ARE,"[5]; PC12h cells, CAB",significantly activated the ARE
same,binding to IVR Keap1,[6],very little binding
same,binding to ΔBTB Keap1,[6],no binding at all
same,binding to ΔDGR Keap1,[6],strong binding
same,binding to Keap1-WT (73-kDa protein),[7],observed in cells treated with CAB
same,adduct formation with BSA,[8],a single band (68 kDa) corresponding to the complex of BSA and CAB was detected
"C[S+]([O-])CCCCN=C=S (stereo not shown) [sulforaphane, reference compound]",protection of PC12h cells against oxidative glutamate toxicity,[4],did not protect
